Source: patent publication US11713318B2, “Short conjugated oligoelectrolytes and uses thereof” (The Regents Of The University Of California, priority 2018, dated 2023)
In brackets after ≈: the same amount, converted by molar mass. Like-named read-outs stand apart in the source and are kept apart here.

How the values were obtained:
E. coli K12 (ATCC 47076) = assay: MIC broth microdilution method, Table 3; details: Escherichia coli, ATCC47076
[1] = tested on: K. pneumoniae CDC0010 (MDR); assay: MIC against resistant strains, Tables 5a-5d; type: cell-based; details: Klebsiella pneumoniae, n = 3
Procedure: (§1) Compounds described herein were evaluated for growth inhibition against a variety of bacterial species, including strains that have developed resistance to common antibacterial treatments, according to the procedure described herein, or by analogous procedures known to those skilled in the art. Resistant bacterial strains used for compound testing include methicillin-resistant S. aureus (MRSA), vancomycin resistant Enterococci (VRE) and various multi-drug resistant (MDR) strains commonly associated with hospital-acquired (nosocomial) infections, including, but not limited to A. baumannii, K. pnuemoniae, and E. cloacae.

E. coli ATCC25922 (WT) = assay: MIC against resistant strains, Tables 5a-5d; type: cell-based; details: Escherichia coli, n = 3
Procedure: as §1

[2] = tested on: P. aeruginosa CDC0248 (MDR); assay: MIC against resistant strains, Tables 5a-5d; type: cell-based; details: Pseudomonas aeruginosa, n = 3
Procedure: as §1

[3] = tested on: K. pneumoniae ATCC BAA-2473 (MDR); assay: MIC against resistant strains, Tables 5a-5d; type: cell-based; details: Klebsiella pneumoniae, ATCCBAA2473, n = 3
Procedure: as §1

[4] = tested on: S. aureus ATCC 33591 (MRSA); assay: MIC against resistant strains, Tables 5a-5d; type: cell-based; details: Staphylococcus aureus, n = 3
Procedure: as §1

[5] = tested on: E. cloacae 1744299 (ESBL); assay: MIC against resistant strains, Tables 5a-5d; type: cell-based; details: Enterobacter cloacae, n = 3
Procedure: as §1

[6] = tested on: P. aeruginosa 1674623 (MDR); assay: MIC against resistant strains, Tables 5a-5d; type: cell-based; details: Pseudomonas aeruginosa, n = 3
Procedure: as §1

E. faecium 1674620 (VRE) = assay: MIC against resistant strains, Tables 5a-5d; type: cell-based; details: Enterococcus faecium, n = 3
Procedure: as §1

[7] = tested on: A. baumannii 1674627 (MDR); assay: MIC against resistant strains, Tables 5a-5d; type: cell-based; details: Acinetobacter baumannii, n = 3
Procedure: as §1

[8] = tested on: A. baumannii CDC0290 (MDR); assay: MIC against resistant strains, Tables 5a-5d; type: cell-based; details: Acinetobacter baumannii, n = 3
Procedure: as §1

[9] = tested on: S. aureus ATCC BAA-1717 (MRSA); assay: MIC against resistant strains, Tables 5a-5d; type: cell-based; details: Staphylococcus aureus, n = 3
Procedure: as §1

[10] = tested on: Hep G2 (ATCC HB-8065) cells; assay: Cytotoxicity, MTT assay; type: cell-based; details: Hep G2, MTT, 24 hours incubation
Procedure: (§2) Before removing the frozen cell stocks from liquid nitrogen, culture medium was pre-warmed to 37° C. The frozen tube was then removed from liquid nitrogen and placed into a 37° C. water bath and shaken gently to thaw the cell stock as quickly as possible. A small portion of the pre-warmed culture medium was added to the cell solution. The cell suspension was then centrifuged at 1000 r/min for 3 minutes. The supernatant was discarded and the cells were resuspended in fresh culture medium.
(§3) NIH 3T3 (ATCC CRL-1658) and Hep G2 (ATCC HB-8065) cells were cultured with DMEM+10% FBS in 100 mm dishes. Cells were lifted for subculture or testing when confluence reached ˜60% by treating with 1× trypsin (incubated for 3 min at 37° C.). J774 (ATCC TIB-67) cells were cultured with DMEM+10% FBS in 100 mm dishes. Cells were lifted for subculture or testing when confluence reached ˜80% using a cell scraper. RAW264.7 (ATCC TIB-71) cells were cultured with DMEM+10% heat-inactivated FBS+1% pen/strep in T75 flasks. Cells were lifted for subculture or testing when confluence reached ˜80% using a cell scraper.
(§4) • 1. Cells were lifted and resuspended in culture medium. The number of cells in the cell suspension was determined using an auto-cell counter: 10 μL of the cell suspension was mixed with 10 μL 1× trypan blue (filtered with 0.2 μm PES filter) and the mixture was loaded onto a cell counting slide. Based on the concentration of viable cells, the cell suspension was further diluted to achieve the desired density. • 2. Cells were seeded in 96 well plates by adding 100 μL final cell suspension column-by-column using a multichannel pipette (5000 cells/well for NIH 3T3, 10000 cells/well for Hep G2, J774 and RAW264.7). The outer wells were block with PBS to reduce the effects of evaporation. One column was filled with only culture medium as a blank. Cells were incubated overnight before adding the test articles. • 3. Test articles were dissolved in 1×PBS (or DMSO) to obtain stocks solution. Stock solutions were pre-warmed before use. […] Serial dilutions (2-fold) of the 10× solutions were made in sterile culture tubes by diluting in 1×PBS (8 dilutions to yield 9 test concentrations). 900 μL of culture media was added to each tube to obtain final drug solution containing 10% PBS (or less than 1% DMSO) for each experimental group. • 4. The original culture medium was gently removed from the 96-well plates using a pipette. 100 μL of the test article solutions prepared in Step 3 were added to rows 2-7 of each column to obtain six replicates for each concentration. Plates were then incubated for 24 hours. • 5. MTT solutions were prepared by dissolving commercial MTT powder in 1×PBS to a concentration of 5 mg/mL. After passing through a 0.22 μm PES filter, the MTT solution was divided into 1 mL portions in sterile centrifuge tubes and stored at −20° C. • 6. MTT stock solutions were removed from the freezer to thaw at room temperature. Before adding MTT solutions, cell cultures were visually inspected and imaged using a microscope (to use as a comparison with MTT results). 10 μL of the 5 mg/mL MTT solution was added to each well and the plate was incubated for 4 hours. • 7. After 4 h incubation, the culture medium/MT solution was removed gently using a pipette. 100 μL of DMSO was added to each well using a multichannel pipette. The 96-well plates were analyzed in a plate reader using the following method: shake for 5 minutes, wait for 30 seconds, and measure absorbance at 570 nm. • 8. Data processing: The average of background Abg was calculated from the blank column. All other data was first treated by subtracting Abg. The average A. and standard deviation Se of each experimental group and the average Ac and standard deviation Sc for control group (with pure culture medium incubation) were then calculated. The cell viability was determined as Ae/Ac×100% and corresponding error as Se/Ae×100%. Significant outliers in any experimental or control group were removed. […]

[11] = tested on: K. aerogenes (ATCC 13048); assay: MIC broth microdilution method, Table 3; details: Klebsiella aerogenes, ATCC13048
Cytotoxicity, MTT assay = type: cell-based
Procedure: as §2, §3, §4

[12] = tested on: NIH 3T3 (ATCC CRL-1658) cells; assay: Cytotoxicity, MTT assay; type: cell-based; details: Mus musculus, NIH3T3; NIH 3T3; MTT, 24 hours incubation; read-out: IC50
Procedure: as §2, §3, §4

J774 (ATCC TIB-67) cells = assay: Cytotoxicity, MTT assay; type: cell-based; details: Mus musculus, MTT, 24 hours incubation, read-out: IC50
Procedure: as §2, §3, §4

[13] = tested on: S. epidermidis (ATCC 14990); assay: MIC broth microdilution method, Table 3; details: Staphylococcus epidermidis, ATCC14990
[14] = tested on: primary human hepatocytes; assay: Cytotoxicity tested by Eurofins Pharma Discovery Services; type: cell-based; details: Hepatocyte, data provided by Eurofins, read-out: IC50
HRPTEpiC = assay: as above; type: cell-based; details: data provided by Eurofins, read-out: IC50
Hep G2 cells = assay: as above; type: cell-based; details: Homo sapiens, HepG2; Hep G2; data provided by Eurofins; read-out: IC50
[15] = Homo sapiens, HepG2, 24 h, read-out: IC50
[16] = human, Hep G2 (ATCC HB-8065) cells, Hep G2, at the concentration given as IC50 bound, read-out: cell viability at the highest or lowest test concentration

Compound	MIC (E. coli K12 (ATCC 47076))	MIC [1]	MIC (E. coli ATCC25922 (WT))	MIC [2]	MIC [3]	MIC [4]	MIC [5]	MIC [6]	MIC (E. faecium 1674620 (VRE))	MIC [7]	MIC [8]	MIC [9]	IC50 [10, 15]	MIC [11]	viability at 24 h (Cytotoxicity, MTT assay; [16])	IC50 [12]	MIC [13]	also measured
CCCC[N+](C)(C)CCOc1cc(/C=C/c2ccc(/C=C/c3cc(OCC[N+](C)(C)CCCC)cc(OCC[N+](C)(C)CCCC)c3)cc2)cc(OCC[N+](C)(C)CCCC)c1.[I-].[I-].[I-].[I-] [Formula G]	4 µg/mL	16 µg/mL	1 µg/mL	64 µg/mL	4 µg/mL	1 µg/mL	4 µg/mL	64 µg/mL	1 µg/mL	32 µg/mL	32 µg/mL	2 µg/mL	889 µg/mL	–	–	–	–	–
CCCCC[N+](C)(C)CCCCOc1cc(/C=C/c2ccc(/C=C/c3cc(OCCCC[N+](C)(C)CCCCC)cc(OCCCC[N+](C)(C)CCCCC)c3)cc2)cc(OCCCC[N+](C)(C)CCCCC)c1 [Formula S]	4 µg/mL	–	–	–	–	–	–	–	–	–	–	–	> 128 µg/mL	8 µg/mL	52%	42.3 µg/mL	2 µg/mL	IC50 (J774 (ATCC TIB-67) cells): 22.6 µg/mL
CC[N+](C)(C)CCCCOc1cc(/C=C/c2ccc(/C=C/c3cc(OCCCC[N+](C)(C)CC)cc(OCCCC[N+](C)(C)CC)c3)cc2)cc(OCCCC[N+](C)(C)CC)c1.[I-].[I-].[I-].[I-] [Formula P]	16 µg/mL	32 µg/mL	8 µg/mL	> 64 µg/mL	16 µg/mL	1 µg/mL	8 µg/mL	> 64 µg/mL	4 µg/mL	64 µg/mL	64 µg/mL	2 µg/mL	–	–	–	–	–	–
CCC[N+](C)(C)CCCCOc1cc(/C=C/c2ccc(/C=C/c3cc(OCCCC[N+](C)(C)CCC)cc(OCCCC[N+](C)(C)CCC)c3)cc2)cc(OCCCC[N+](C)(C)CCC)c1 [Formula Q]	8 µg/mL	32 µg/mL	4 µg/mL	> 64 µg/mL	8 µg/mL	1 µg/mL	4 µg/mL	> 64 µg/mL	1 µg/mL	64 µg/mL	64 µg/mL	1 µg/mL	> 128 µg/mL	–	91%	–	–	–
CO/N=C(\C(=O)N[C@@H]1C(=O)N2C(C(=O)[O-])=C(C[n+]3cccc4c3CCC4)CS[C@H]12)c1csc(N)n1 [Cefpirome, reference compound]	0.0625 µg/mL (≈ 0.121 µM)	–	–	–	–	–	–	–	–	–	–	–	> 128 µg/mL	0.25 µg/mL (≈ 0.486 µM)	101%	> 128 µg/mL	1 µg/mL (≈ 1.94 µM)	viability at 24 h (Cytotoxicity, MTT assay; mouse, J774 (ATCC TIB-67) cells, at the concentration given as IC50 bound, read-out: cell viability at the highest or lowest test concentration): 107%; viability at 24 h (Cytotoxicity, MTT assay; mouse, NIH 3T3 (ATCC CRL-1658) cells, NIH 3T3, at the concentration given as IC50 bound, read-out: cell viability at the highest or lowest test concentration): 81%; IC50 (J774 (ATCC TIB-67) cells): > 128 µg/mL
CCCCCC[N+](C)(C)CCCOc1cc(/C=C/c2ccc(/C=C/c3cc(OCCC[N+](C)(C)CCCCCC)cc(OCCC[N+](C)(C)CCCCCC)c3)cc2)cc(OCCC[N+](C)(C)CCCCCC)c1 [Formula BB]	8 µg/mL	2 µg/mL	2 µg/mL	32 µg/mL	2 µg/mL	2 µg/mL	2 µg/mL	16 µg/mL	0.25 µg/mL	2 µg/mL	2 µg/mL	1 µg/mL	15 µg/mL	–	–	–	–	viability at 24 h (Cytotoxicity, MTT assay; human, Hep G2 (ATCC HB-8065) cells, Hep G2, at concentrations efficacious against bacterial species (0.25-4 μg/mL), read-out: cell viability): ~90%; IC50 [10]: 15.1 µg/mL
C[N+](C)(C)CCCCCCOc1cc(/C=C/c2ccc(/C=C/c3ccc(/C=C/c4cc(OCCCCCC[N+](C)(C)C)cc(OCCCCCC[N+](C)(C)C)c4)cc3)cc2)cc(OCCCCCC[N+](C)(C)C)c1 [Formula TT]	> 256 µg/mL	–	–	–	–	–	–	–	–	–	–	–	> 128 µg/mL	> 128 µg/mL	70%	69.3 µg/mL	4 µg/mL	IC50 [14]: 102 µg/mL; IC50 (HRPTEpiC): 6.3 µg/mL; IC50 (Hep G2 cells): 94.6 µg/mL
